{"source": "patent US20100004248A1", "about": "“Use of a Nitric Oxide Synthase Modulator for the Treatment of Cardiac Indications” (priority 2005, published 2010)", "key": {"[1]": {"system": "intact heart, beta-adrenergic stimulation by ISO", "assay": "Contractility response of intact heart to isoproterenol (ISO)", "format": "in vivo, mouse", "excerpt": "Regulation of acute beta-adrenergic stress by PDE5a inhibition (resulting in a rise in cGMP and activation of protein kinase G) requires the activity of nitric oxide synthase (NOS). […] This can be offset by chronic distal activation of the NO target protein soluble guanylate cyclase 9sGC). At the left are bars depicting the contractility response of an intact heart to ISO before and after co-administration of SIL. The ISO response is normally blunted by nearly 80%. The middle bars show data from mice with NOS inhibited by L-NAME (1 mg/L in drinking water). […] However, if one continues to treat hearts with the soluble guanylate cyclase activator (BAY 41-8543) for a week-all the while continuing NOS inhibition with L-NAME, the ability of SIL to suppress adrenergic stimulation is restored."}, "[2]": {"system": "Adult myocytes isolated from wild-type C57/B16 mouse hearts", "assay": "Sarcomere shortening of isolated adult myocytes exposed to isoproterenol", "format": "cell-based"}, "[3]": {"system": "Protein kinase G", "assay": "Protein kinase G activity in 9-week TAC hearts", "format": "in vivo, mouse", "settings": "treatment during weeks 5-9", "excerpt": "Protein kinase G activity increased nominally over time in 9-week TAC hearts, although this falls just short of statistical significance. […] Rather, the prior data supports an effect on reducing oxidant stress and re-coupling nitric oxide synthase."}}}
{"smiles": "CCCc1nn(C)c2c(=O)[nH]c(-c3cc(S(=O)(=O)N4CCN(C)CC4)ccc3OCC)nc12", "note": "[Sildenafil, sildenafil]", "values": [{"measurement": "blunting of ISO contractility response", "setting": "[1]; intact heart, co-administration of SIL", "value": "~80", "unit": "%"}, {"measurement": "inhibition of ISO response with NOS inhibited", "setting": "[1]; mice given L-NAME 1 mg/L in drinking water for 1 week", "value": "no longer inhibited"}, {"measurement": "ability to blunt the isoproterenol response", "setting": "[2]; myocytes from hypertrophied and dilated hearts (3-4 weeks TAC), p=0.04", "value": "markedly diminished"}, {"measurement": "blunting of isoproterenol-increased sarcomere shortening", "setting": "[2]; wild-type myocytes, isoproterenol 10 micromolar, sildenafil 0.1", "value": "~25", "unit": "%"}, {"measurement": "PKG activity", "setting": "[3]", "value": "significantly increased"}]}
